Results as given in ChEMBL document CHEMBL2439971, “Design, synthesis and antiproliferative evaluation of fluorenone analogs with DNA topoisomerase I inhibitory properties” (Bioorg Med Chem, 2013).
Calls of active or inactive are those of the source. No cut-off for these calls is given here.

Key:
[1] = system: SF-268; experiment: Cytotoxicity against human SF268 cells at 10 uM after 48 hrs by sulforhodamine B assay relative to control; type: functional
[2] = system: SR; experiment: Cytotoxicity against human SR cells at 10 uM after 48 hrs by sulforhodamine B assay relative to control; type: functional
[3] = system: OVCAR-3; experiment: Cytotoxicity against human OVCAR3 cells at 10 uM after 48 hrs by sulforhodamine B assay relative to control; type: functional
[4] = system: Malme-3M; experiment: Cytotoxicity against human MALME-3M cells at 10 uM after 48 hrs by sulforhodamine B assay relative to control; type: functional
[5] = system: MDA-MB-231; experiment: Cytotoxicity against human MDA-MB-231 cells at 10 uM after 48 hrs by sulforhodamine B assay relative to control; type: functional
[6] = system: NCI-H460; experiment: Cytotoxicity against human NCI-H460 cells at 10 uM after 48 hrs by sulforhodamine B assay relative to control; type: functional
[7] = system: OVCAR-5; experiment: Cytotoxicity against human OVCAR5 cells at 10 uM after 48 hrs by sulforhodamine B assay relative to control; type: functional
[8] = system: HOP-92; experiment: Cytotoxicity against human HOP92 cells at 10 uM after 48 hrs by sulforhodamine B assay relative to control; type: functional
[9] = system: K562; experiment: Cytotoxicity against human K562 cells at 10 uM after 48 hrs by sulforhodamine B assay relative to control; type: functional
[10] = system: RXF 393; experiment: Cytotoxicity against human RXF393 cells at 10 uM after 48 hrs by sulforhodamine B assay relative to control; type: functional
[11] = species on record: Homo sapiens; experiment: Inhibition of telomerase (unknown origin) at 10 uM TRAP assay
[12] = system: NCI-H322M; experiment: Cytotoxicity against human NCI-H322M cells at 10 uM after 48 hrs by sulforhodamine B assay relative to control; type: functional
[13] = system: HCT-15; experiment: Cytotoxicity against human HCT15 cells at 10 uM after 48 hrs by sulforhodamine B assay relative to control; type: functional
[14] = system: SF-539; experiment: Cytotoxicity against human SF539 cells at 10 uM after 48 hrs by sulforhodamine B assay relative to control; type: functional
[15] = system: RPMI-8226; experiment: Cytotoxicity against human RPMI8226 cells at 10 uM after 48 hrs by sulforhodamine B assay relative to control; type: functional
[16] = system: 786-0; experiment: Cytotoxicity against human 786-0 cells at 10 uM after 48 hrs by sulforhodamine B assay relative to control; type: functional
[17] = system: SW-620; experiment: Cytotoxicity against human SW620 cells at 10 uM after 48 hrs by sulforhodamine B assay relative to control; type: functional
[18] = system: HL-60(TB); experiment: Cytotoxicity against human HL-60(TB) cells at 10 uM after 48 hrs by sulforhodamine B assay relative to control; type: functional
[19] = system: UO-31; experiment: Cytotoxicity against human UO31 cells at 10 uM after 48 hrs by sulforhodamine B assay relative to control; type: functional
[20] = system: MCF7; experiment: Cytotoxicity against human MCF7 cells at 10 uM after 48 hrs by sulforhodamine B assay relative to control; type: functional
[21] = system: SN12C; experiment: Cytotoxicity against human SN12C cells at 10 uM after 48 hrs by sulforhodamine B assay relative to control; type: functional
[22] = system: CCRF-CEM; experiment: Cytotoxicity against human CCRF-CEM cells at 10 uM after 48 hrs by sulforhodamine B assay relative to control; type: functional
[23] = system: HCC 2998; experiment: Cytotoxicity against human HCC2998 cells at 10 uM after 48 hrs by sulforhodamine B assay relative to control; type: functional
[24] = system: U-251; experiment: Cytotoxicity against human U251 cells at 10 uM after 48 hrs by sulforhodamine B assay relative to control; type: functional
[25] = system: MDA-MB-435; experiment: Cytotoxicity against human MDA-MB-435 cells at 10 uM after 48 hrs by sulforhodamine B assay relative to control; type: functional
[26] = system: KM12; experiment: Cytotoxicity against human KM12 cells at 10 uM after 48 hrs by sulforhodamine B assay relative to control; type: functional
[27] = system: NCI-H23; experiment: Cytotoxicity against human NCI-H23 cells at 10 uM after 48 hrs by sulforhodamine B assay relative to control; type: functional
[28] = system: SNB-19; experiment: Cytotoxicity against human SNB19 cells at 10 uM after 48 hrs by sulforhodamine B assay relative to control; type: functional
[29] = system: PC-3; experiment: Cytotoxicity against human PC3 cells at 10 uM after 48 hrs by sulforhodamine B assay relative to control; type: functional
[30] = system: DU-145; experiment: Cytotoxicity against human DU145 cells at 10 uM after 48 hrs by sulforhodamine B assay relative to control; type: functional
[31] = system: OVCAR-4; experiment: Cytotoxicity against human OVCAR4 cells at 10 uM after 48 hrs by sulforhodamine B assay relative to control; type: functional
[32] = system: PC-3; experiment: Cytotoxicity against human PC3 cells after 48 hrs by sulforhodamine B assay; type: functional, cell-based; settings: PC-3, 48 h
[33] = system: LOX IMVI; experiment: Cytotoxicity against human LOXIMVI cells at 10 uM after 48 hrs by sulforhodamine B assay relative to control; type: functional
[34] = system: HT-29; experiment: Cytotoxicity against human HT-29 cells at 10 uM after 48 hrs by sulforhodamine B assay relative to control; type: functional
[35] = system: SF-295; experiment: Cytotoxicity against human SF295 cells at 10 uM after 48 hrs by sulforhodamine B assay relative to control; type: functional
[36] = system: BT-549; experiment: Cytotoxicity against human BT549 cells at 10 uM after 48 hrs by sulforhodamine B assay relative to control; type: functional
[37] = Cytotoxicity against human Hs 578T cells at 10 uM after 48 hrs by sulforhodamine B assay relative to control; type: functional
[38] = system: M14; experiment: Cytotoxicity against human M14 cells at 10 uM after 48 hrs by sulforhodamine B assay relative to control; type: functional
[39] = system: T47D; experiment: Cytotoxicity against human T47D cells at 10 uM after 48 hrs by sulforhodamine B assay relative to control; type: functional
[40] = system: A549; experiment: Cytotoxicity against human A549 cells at 10 uM after 48 hrs by sulforhodamine B assay relative to control; type: functional
[41] = system: MOLT-4; experiment: Cytotoxicity against human MOLT4 cells at 10 uM after 48 hrs by sulforhodamine B assay relative to control; type: functional
[42] = system: SK-MEL-28; experiment: Cytotoxicity against human SK-MEL-28 cells at 10 uM after 48 hrs by sulforhodamine B assay relative to control; type: functional
[43] = system: CAKI-1; experiment: Cytotoxicity against human CAKI-1 cells at 10 uM after 48 hrs by sulforhodamine B assay relative to control; type: functional
[44] = system: SNB-75; experiment: Cytotoxicity against human SNB75 cells at 10 uM after 48 hrs by sulforhodamine B assay relative to control; type: functional
[45] = Cytotoxicity against human EKVX cells at 10 uM after 48 hrs by sulforhodamine B assay relative to control; type: functional
[46] = system: NCI/ADR-RES; experiment: Cytotoxicity against human NCI/ADR-RES cells at 10 uM after 48 hrs by sulforhodamine B assay relative to control; type: functional
[47] = system: MDA-MB-468; experiment: Cytotoxicity against human MDA-MB-468 cells at 10 uM after 48 hrs by sulforhodamine B assay relative to control; type: functional
[48] = system: HCT-116; experiment: Cytotoxicity against human HCT116 cells at 10 uM after 48 hrs by sulforhodamine B assay relative to control; type: functional
[49] = system: HOP-62; experiment: Cytotoxicity against human HOP62 cells at 10 uM after 48 hrs by sulforhodamine B assay relative to control; type: functional
[50] = system: UACC-62; experiment: Cytotoxicity against human UACC62 cells at 10 uM after 48 hrs by sulforhodamine B assay relative to control; type: functional
[51] = system: IGROV-1; experiment: Cytotoxicity against human IGROV1 cells at 10 uM after 48 hrs by sulforhodamine B assay relative to control; type: functional
[52] = system: ACHN; experiment: Cytotoxicity against human ACHN cells at 10 uM after 48 hrs by sulforhodamine B assay relative to control; type: functional
[53] = system: COLO 205; experiment: Cytotoxicity against human COLO205 cells at 10 uM after 48 hrs by sulforhodamine B assay relative to control; type: functional
[54] = system: SK-MEL-5; experiment: Cytotoxicity against human SK-MEL-5 cells at 10 uM after 48 hrs by sulforhodamine B assay relative to control; type: functional
[55] = system: NCI-H522; experiment: Cytotoxicity against human NCI-H522 cells at 10 uM after 48 hrs by sulforhodamine B assay relative to control; type: functional
[56] = system: OVCAR-8; experiment: Cytotoxicity against human OVCAR8 cells at 10 uM after 48 hrs by sulforhodamine B assay relative to control; type: functional
[57] = system: TK-10; experiment: Cytotoxicity against human TK10 cells at 10 uM after 48 hrs by sulforhodamine B assay relative to control; type: functional
[58] = system: UACC-257; experiment: Cytotoxicity against human UACC257 cells at 10 uM after 48 hrs by sulforhodamine B assay relative to control; type: functional
[59] = system: NCI-H226; experiment: Cytotoxicity against human NCI-H226 cells at 10 uM after 48 hrs by sulforhodamine B assay relative to control; type: functional
[60] = system: SK-MEL-2; experiment: Cytotoxicity against human SK-MEL-2 cells at 10 uM after 48 hrs by sulforhodamine B assay relative to control; type: functional

CCNCCC(=O)Nc1ccc2c(c1)C(=O)c1cc(NC(=O)CCNCC)ccc1-2
Activity [1]: 121.13%
Activity [2]: 101.47%
Activity [3]: 120.25%
Activity [4]: 101.61%
Activity [5]: 105.71%
Activity [6]: 109.14%
Activity [7]: 110.42%
Activity [8]: 87.24%
Activity [9]: 92.16%
Activity [10]: 105.09%
inhibition [11]: inactive
Activity [12]: 100.96%
Activity [13]: 108.19%
Activity [14]: 116.97%
Activity [15]: 104.16%
Activity [16]: 102.08%
Activity [17]: 101.71%
Activity [18]: 104.46%
Activity [19]: 102.42%
Activity [20]: 87.69%
Activity [21]: 94.35%
Activity [22]: 101.3%
Activity [23]: 104.87%
Activity [24]: 92.86%
Activity [25]: 97.63%
Activity [26]: 114.64%
Activity [27]: 98.77%
Activity [28]: 100.42%
Activity [29]: 101.42%
Activity [30]: 120.33%
Activity [31]: 105.01%
IC50 [32]: > 30 µM
Activity [33]: 97.55%
Activity [34]: 104.19%
Activity [35]: 88.95%
Activity [36]: 119.2%
Activity [37]: 98.9%
Activity [38]: 113.99%
Activity [39]: 108.97%
Activity [40]: 94.72%
Activity [41]: 98.76%
Activity [42]: 105.31%
Activity [43]: 96.47%
Activity [44]: 92.33%
Activity [45]: 102.12%
Activity [46]: 96.39%
Activity [47]: 96.83%
Activity [48]: 109.77%
Activity [49]: 105.98%
Activity [50]: 100.48%
Activity [51]: 108.06%
Activity [52]: 120.72%
Activity [53]: 110.13%
Activity [54]: 102.17%
Activity [55]: 103.53%
Activity [56]: 103.63%
Activity [57]: 103.34%
Activity [58]: 111.63%
Activity [59]: 105.54%
Activity [60]: 126.91%

O=C(CCN1CCOCC1)Nc1ccc2c(c1)C(=O)c1cc(NC(=O)CCN3CCOCC3)ccc1-2
Activity [1]: 115.57%
Activity [2]: 98.5%
Activity [3]: 121.23%
Activity [4]: 118.44%
Activity [5]: 122.26%
Activity [6]: 105.97%
Activity [7]: 103.99%
Activity [9]: 99.03%
Activity [10]: 99.09%
inhibition [11]: inactive
Activity [12]: 109.97%
Activity [13]: 108.42%
Activity [14]: 107.54%
Activity [15]: 99.87%
Activity [16]: 110.24%
Activity [17]: 106.16%
Activity [18]: 112.24%
Activity [19]: 86.58%
Activity [20]: 88.76%
Activity [21]: 104.8%
Activity [22]: 92.01%
Activity [23]: 100.06%
Activity [24]: 94.41%
Activity [25]: 104.2%
Activity [26]: 105.8%
Activity [27]: 94.62%
Activity [28]: 110.22%
Activity [29]: 113.85%
Activity [30]: 117.55%
Activity [31]: 105.22%
IC50 [32]: > 30 µM
Activity [33]: 89.4%
Activity [34]: 111.58%
Activity [35]: 105.19%
Activity [36]: 113.53%
Activity [37]: 101.67%
Activity [38]: 127.51%
Activity [39]: 101.34%
Activity [40]: 98.13%
Activity [41]: 94.98%
Activity [42]: 104.41%
Activity [43]: 96.99%
Activity [44]: 82.97%
Activity [45]: 99.88%
Activity [46]: 102.84%
Activity [47]: 101.73%
Activity [48]: 114.57%
Activity [49]: 115.73%
Activity [50]: 122.9%
Activity [51]: 95.95%
Activity [52]: 101.15%
Activity [53]: 105.48%
Activity [54]: 102.76%
Activity [55]: 102.66%
Activity [56]: 103.76%
Activity [57]: 112.26%
Activity [58]: 113.13%
Activity [59]: 109.63%
Activity [60]: 131.96%
